From ChEMBL document CHEMBL4184269, “Novel aromatic sulfonyl naphthalene-based boronates as 20S proteasome inhibitors” (Bioorg Med Chem, 2018)
pIC50: −log10 of the molar value.

What was measured:
[1] = target: T1, Proteasome Macropain subunit MB1 (Homo sapiens) (UniProt P28074); assay: Inhibition of chymotrypsin-like activity of human 20S proteasome at 100 nM using Suc-Leu-Leu-Val-Tyr-AMC as substrate by fluorescence assay relative to control
T1 sequence (whole entry): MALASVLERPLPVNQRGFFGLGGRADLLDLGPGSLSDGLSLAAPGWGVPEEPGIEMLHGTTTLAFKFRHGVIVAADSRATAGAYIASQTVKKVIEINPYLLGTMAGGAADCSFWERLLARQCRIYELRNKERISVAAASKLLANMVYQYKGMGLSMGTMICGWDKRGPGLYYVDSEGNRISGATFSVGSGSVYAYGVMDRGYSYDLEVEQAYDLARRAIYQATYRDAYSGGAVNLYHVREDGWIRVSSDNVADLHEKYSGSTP

[2] = test system: MDA-MB-231; assay: Antiproliferative activity against human MDA-MB-231 cells after 72 hrs by SRB assay; format: functional, cell-based
[3] = test system: MCF7; assay: Antiproliferative activity against human MCF7 cells after 72 hrs by SRB assay; format: functional, cell-based
[4] = target: T1, Proteasome Macropain subunit MB1 (Homo sapiens); assay: Inhibition of chymotrypsin-like activity of human 20S proteasome at 10 nM using Suc-Leu-Leu-Val-Tyr-AMC as substrate by fluorescence assay relative to control
[5] = Metabolic stability in Sprague-Dawley rat liver microsomes assessed as parent compound remaining at […] preincubated for 5 mins followed by NADPH addition measured after 40 mins by HPLC analysis; format: ADME, microsome; settings: read-out: Stability
[6] = test system: A549; assay: Antiproliferative activity against human A549 cells after 72 hrs by SRB assay; format: functional, cell-based

| inhibition [1] | pIC50 ([2]; Homo sapiens, MDA-MB-231, 72 h) | pIC50 ([3]; Homo sapiens, MCF7, 72 h) | Compound | other results |
| --- | --- | --- | --- | --- |
| 4.89% |  |  | C[S+](C)[O-] |  |
| 32.5% | 4.98 | 5.38 | CC(C)C[C@H](NC(=O)CSc1cc(NS(=O)(=O)c2ccccc2)c2ccccc2c1O)B(O)O |  |
| 27.4% | 5.55 | 5.05 | CC(=O)Nc1ccc(S(=O)(=O)Nc2cc(SC(C)C(=O)N[C@@H](CC(C)C)B(O)O)c(O)c3ccccc23)cc1 (stereo not given in full) |  |
| 52.5% | 5.39 | 5.16 | CC(C)C[C@H](NC(=O)CCSc1cc(NS(=O)(=O)c2ccc(Cl)cc2)c2ccccc2c1O)B(O)O |  |
|  |  |  | CC(C)C[C@H](NC(=O)C(C)Sc1cc(NS(=O)(=O)c2ccc(Cl)cc2)c2ccccc2c1O)B(O)O (stereo in doubt; 3c-1) [listing 1 of 2 here] | pIC50 ([2]; mda-mb-231): 5.19; pIC50 ([3]; mcf7): 4.97 |
| 22.6% |  |  | CC(C)C[C@H](NC(=O)C(C)Sc1cc(NS(=O)(=O)c2ccccc2)c2ccccc2c1O)B(O)O (stereo in doubt; 3b) [listing 1 of 2 here] |  |
| 45.1% | 5.21 | 4.98 | CC(C)C[C@H](NC(=O)CSc1cc(NS(=O)(=O)c2ccc(Cl)cc2)c2ccccc2c1O)B(O)O |  |
| 38.3% | 5.35 | 5.19 | CC(C)C[C@H](NC(=O)CCSc1cc(NS(=O)(=O)c2cccs2)c2ccccc2c1O)B(O)O |  |
| 35.5% | 5.09 | 5.06 | Cc1ccc(S(=O)(=O)Nc2cc(SC(C)C(=O)N[C@@H](CC(C)C)B(O)O)c(O)c3ccccc23)cc1 (stereo not given in full) |  |
|  |  |  | CC(C)C[C@H](NC(=O)C(C)Sc1cc(NS(=O)(=O)c2ccccc2)c2ccccc2c1O)B(O)O (stereo in doubt; 3b-1) [listing 1 of 2 here] | pIC50 ([2]; mda-mb-231): 5.29; pIC50 ([3]; mcf7): 4.95 |
| 40.8% | 5.35 | 5.06 | CC(=O)Nc1ccc(S(=O)(=O)Nc2cc(SCC(=O)N[C@@H](CC(C)C)B(O)O)c(O)c3ccccc23)cc1 |  |
| 38.4% | 5.67 | 5.18 | CC(=O)Nc1ccc(S(=O)(=O)Nc2cc(SCCC(=O)N[C@@H](CC(C)C)B(O)O)c(O)c3ccccc23)cc1 |  |
|  | 5.51 | 4.74 | CC(C)C[C@H](NC(=O)[C@H](Cc1ccccc1)NC(=O)c1cnccn1)B(O)O [BORTEZOMIB] | inhibition [4]: 51.2%; remaining at 40 min [5]: 30% |
| 6.86% |  |  | O=C(O)CSc1cc(NS(=O)(=O)c2cccs2)c2ccccc2c1O |  |
|  | 5.21 | 4.99 | CC(C)C[C@H](NC(=O)C(C)Sc1cc(NS(=O)(=O)c2ccc(Cl)cc2)c2ccccc2c1O)B(O)O (stereo in doubt; 3c) [listing 1 of 2 here] | pIC50 [6]: 4.78 |
| 33.3% | 5.19 | 5.02 | CC(C)C[C@H](NC(=O)CSc1cc(NS(=O)(=O)c2cccs2)c2ccccc2c1O)B(O)O |  |
| 41.5% |  |  | CC(C)C[C@H](NC(=O)C(C)Sc1cc(NS(=O)(=O)c2ccc(Cl)cc2)c2ccccc2c1O)B(O)O (stereo in doubt; 3c) [listing 2 of 2 here] |  |
| 41.1% | 5.13 | 4.83 | CC(C)C[C@H](NC(=O)C(C)Sc1cc(NS(=O)(=O)c2cccs2)c2ccccc2c1O)B(O)O (stereo not given in full) |  |
| 45.6% | 5.38 | 5.13 | CC(C)C[C@H](NC(=O)CCSc1cc(NS(=O)(=O)c2ccccc2)c2ccccc2c1O)B(O)O |  |
| 54.2% | 5.21 | 5.16 | Cc1ccc(S(=O)(=O)Nc2cc(SCCC(=O)N[C@@H](CC(C)C)B(O)O)c(O)c3ccccc23)cc1 | remaining at 40 min [5]: 56% |
| 39.4% |  |  | CC(C)C[C@H](NC(=O)C(C)Sc1cc(NS(=O)(=O)c2ccc(Cl)cc2)c2ccccc2c1O)B(O)O (stereo in doubt; 3c-1) [listing 2 of 2 here] |  |
| 36.6% | 4.85 | 4.89 | Cc1ccc(S(=O)(=O)Nc2cc(SCC(=O)N[C@@H](CC(C)C)B(O)O)c(O)c3ccccc23)cc1 |  |
| 25.4% |  |  | CC(C)C[C@H](NC(=O)C(C)Sc1cc(NS(=O)(=O)c2ccccc2)c2ccccc2c1O)B(O)O (stereo in doubt; 3b-1) [listing 2 of 2 here] |  |
|  |  | 4.78 | CC(C)C[C@H](NC(=O)C(C)Sc1cc(NS(=O)(=O)c2ccccc2)c2ccccc2c1O)B(O)O (stereo in doubt; 3b) [listing 2 of 2 here] | pIC50 [6]: 5.35; pIC50 ([2]; mda-mb-231): 4.96 |
